Results taken from patent US20130324707A1, “SYNTHETIC AMPHIPHILES FOR MEMBRANE PROTEIN MANIPULATION” (The Board of Trustees of the Leland Stanford Junior …, priority 2009, published 2013).
Marks after values point to notes of the source that are not given here.

Legend:
[1] = Critical micelle concentration (CMC) by fluorescent dye uptake; assay type: physicochemical
Source text: The Critical Micelle Concentrations (CMCs) of compounds of the invention can be determined by standard techniques known to those of skill in the art. For example, CMCs of the carbohydrate-based amphiphiles described herein can be determined by monitoring uptake of a fluorescent dye (e.g., a dye such as 1,6-diphenylhexatriene) with increasing detergent concentration, monitored by fluorescence spectroscopy.

[2] = tested on: human β2 adrenergic receptor-T4-lyosome fusion protein (β2AR-T4L); experiment: Thermal stabilization (Tm) of β2AR-T4L in amphiphile, normalized peak ratio 341 nm/356 nm; design: Tm: unit: °C; conditions: for Tm: β2AR-T4L
Source text: FIG. 3 illustrates the results of comparing MNGs to MPAs at 10×CMC for stabilization efficacy of β2 adrenergic receptor-T4-lyosome fusion protein (β2AR-T4L), according to an embodiment of the invention.
FIG. 4 illustrates the results of comparing MNGs to MPAs at 50×CMC for stabilization efficacy of β2AR-T4L, according to an embodiment of the invention. Similar to FIG. 3, the horizontal dotted line extending from 50% on the y-axis in FIG. 4 indicates the melting temperature (Tm).
The branched amphiphiles of the invention have shown to have several advantageous properties that match or surpass those of many known amphiphiles. The branched nature provide improved stabilization, attributable to the dual saccharide chains, and improved solubilization, attributable to the dual hydrophobic tail groups. FIGS. 3 and 4 show a comparative study showing normalized peak ratios (341 nm/356 nm) for six different amphiphiles (illustrated in Schemes F and G) from 25° C. to 85° C., at 10×CMC and 50×CMC for human β2 adrenergic receptor-T4-lyosome fusion protein (β2AR-T4L).

[3] = 10 × CMC, scan from 25° C. to 85° C.
[4] = concentration not given, matches most favourable (*) Tm minus DDM 63.5

| CMC [1] | CMC (%) [1] | ΔTm ([2]; 10 × CMC, relative to DDM) | Tm [2, 3] | ΔTm ([2]; 50 × CMC, relative to DDM) | Tm ([2]; 50 × CMC) | ΔTm [2, 4] | Compound |
| --- | --- | --- | --- | --- | --- | --- | --- |
| 0.0037 mM | 0.00038% | +0.6 | 64.1 (n = 3) | +4.3 | 67.3 (n = 3)* | +3.8 | CCCCCCCCCCCC(CCCCCCCCCCC)(CO[C@H]1OC(CO)[C@H](O[C@@H]2OC(CO)[C@H](O)C(O)[C@H]2O)C(O)[C@H]1O)CO[C@H]1OC(CO)[C@H](O[C@@H]2OC(CO)[C@H](O)C(O)[C@H]2O)C(O)[C@H]1O (stereo partly drawn) [MNG-4] |
| 9.64 mM | 0.373% | – | – | – | – | – | CCCCCC(CCCCC)(COC1OC(CO)C(O)C(O)C1O)COC1OC(CO)C(O)C(O)C1O (stereo not drawn) [GNG-13] |
| 0.009 mM | 0.00096% | +1.1 | 64.6 (n = 3) | +4.1 | 67.1 (n = 3)* | +3.6 | CCCCCCCCCCOCC(COCCCCCCCCCC)(CO[C@H]1OC(CO)[C@H](O[C@@H]2OC(CO)[C@H](O)C(O)[C@H]2O)C(O)[C@H]1O)CO[C@H]1OC(CO)[C@H](O[C@@H]2OC(CO)[C@H](O)C(O)[C@H]2O)C(O)[C@H]1O (stereo partly drawn) [MNG-6] |
| 0.017 mM | 0.0019% | +1.6 | 65.1 (n = 3)* | +2.1 | 65.1 (n = 3)* | +1.6 | CCCCCCCCCCC(=O)NCC(CNC(=O)CCCCCCCCCC)(CO[C@H]1OC(CO)[C@H](O[C@@H]2OC(CO)[C@H](O)C(O)[C@H]2O)C(O)[C@H]1O)CO[C@H]1OC(CO)[C@H](O[C@@H]2OC(CO)[C@H](O)C(O)[C@H]2O)C(O)[C@H]1O (stereo partly drawn) [MNG-1] |
| 0.008 mM | 0.0009% | – | – | – | – | – | CCCCCCCCCCCC(=O)NCC(CNC(=O)CCCCCCCCCCC)(COC1OC(CO)C(OC2OC(CO)C(O)C(O)C2O)C(O)C1O)COC1OC(CO)C(OC2OC(CO)C(O)C(O)C2O)C(O)C1O (stereo not drawn) [MNG-27] |
| 2.1 mM | 0.13% | – | – | – | – | – | OCC1OC(OCC(COC2OC(CO)C(O)C(O)C2O)(CSC2CCCCC2)CSC2CCCCC2)C(O)C(O)C1O (stereo not drawn) [GNG-1] |
| 0.9 mM | 0.1162% | – | – | – | – | – | O=C(Cc1cc(C(F)(F)F)cc(C(F)(F)F)c1)NCC(CNC(=O)Cc1cc(C(F)(F)F)cc(C(F)(F)F)c1)(COC1OC(CO)C(OC2OC(CO)C(O)C(O)C2O)C(O)C1O)COC1OC(CO)C(OC2OC(CO)C(O)C(O)C2O)C(O)C1O (stereo not drawn) [MNG-23] |
| 17 mM | 1.07% | – | – | – | – | – | OCC1OC(OCC(COC2CCCCC2)(COC2CCCCC2)COC2OC(CO)C(O)C(O)C2O)C(O)C(O)C1O (stereo not drawn) [GNG-10] |
| 0.24 mM | 0.0268% | – | – | – | – | – | CCCCCCCC(=O)NCC(CNC(=O)C(C1CCCCC1)C1CCCCC1)(COC1OC(CO)C(OC2OC(CO)C(O)C(O)C2O)C(O)C1O)COC1OC(CO)C(OC2OC(CO)C(O)C(O)C2O)C(O)C1O (stereo not drawn) [MNG-21] |
| 1.02 mM | 0.058% | – | – | – | – | – | CCCCCCC(CCCCCC)(COC1OC(CO)C(O)C(O)C1O)COC1OC(CO)C(O)C(O)C1O (stereo not drawn) [GNG-12] |
| 0.02 mM | 0.0022% | – | – | – | – | – | CCCCCCCCCCCCCC(=O)NCC(CNC(=O)CCCCCCC)(COC1OC(CO)C(OC2OC(CO)C(O)C(O)C2O)C(O)C1O)COC1OC(CO)C(OC2OC(CO)C(O)C(O)C2O)C(O)C1O (stereo not drawn) [MNG-15] |
| 13.4 mM | 0.647% | – | – | – | – | – | CCCCCOCC(COCCCCC)(COC1OC(CO)C(O)C(O)C1O)COC1OC(CO)C(O)C(O)C1O (stereo not drawn) [GNG-14] |
| 0.053 mM | 0.0059% | – | – | – | – | – | O=C(CCCCC1CCCCC1)NCC(CNC(=O)CCCCC1CCCCC1)(COC1OC(CO)C(OC2OC(CO)C(O)C(O)C2O)C(O)C1O)COC1OC(CO)C(OC2OC(CO)C(O)C(O)C2O)C(O)C1O (stereo not drawn) [MNG-10] |
| 1.55 mM | 0.08% | – | – | – | – | – | CCCCCCOCC(COCCCCCC)(COC1OC(CO)C(O)C(O)C1O)COC1OC(CO)C(O)C(O)C1O (stereo not drawn) [GNG-6] |
| 72 mM | 4.7% | – | – | – | – | – | O=C(NCC(CNC(=O)C1CCCC1)(COC1OC(CO)C(O)C(O)C1O)COC1OC(CO)C(O)C(O)C1O)C1CCCC1 (stereo not drawn) [GNG-4] |
| 0.034 mM | 0.0034% | – | – | – | – | – | CCCCCCCCOCC(COCCCCCCCC)(COC1OC(CO)C(OC2OC(CO)C(O)C(O)C2O)C(O)C1O)COC1OC(CO)C(OC2OC(CO)C(O)C(O)C2O)C(O)C1O (stereo not drawn) [MNG-31] |

| CMC [1] | CMC (%) [1] | ΔTm ([2]; 10 × CMC, relative to DDM) | Tm [2, 3] | ΔTm ([2]; 50 × CMC, relative to DDM) | Tm ([2]; 50 × CMC) | ΔTm [2, 4] | Compound |
| --- | --- | --- | --- | --- | --- | --- | --- |
| 0.18 mM | 0.0194% | – | – | – | – | – | CCCCCCCC(=O)NCC(CNC(=O)CCCCC1CCCCC1)(COC1OC(CO)C(OC2OC(CO)C(O)C(O)C2O)C(O)C1O)COC1OC(CO)C(OC2OC(CO)C(O)C(O)C2O)C(O)C1O (stereo not drawn) [MNG-19] |
| 0.12 mM | 0.0134% | – | – | – | – | – | CC(C)(C)C1CCC(C(=O)NCC(CNC(=O)C2CCC(C(C)(C)C)CC2)(COC2OC(CO)C(OC3OC(CO)C(O)C(O)C3O)C(O)C2O)COC2OC(CO)C(OC3OC(CO)C(O)C(O)C3O)C(O)C2O)CC1 (stereo not drawn) [MNG-26] |
| 0.3 mM | 0.0319% | – | – | – | – | – | CCCCCCCCC(=O)NCC(CNC(=O)CCCCCCCC)(COC1OC(CO)C(OC2OC(CO)C(O)C(O)C2O)C(O)C1O)COC1OC(CO)C(OC2OC(CO)C(O)C(O)C2O)C(O)C1O (stereo not drawn) [MNG-20] |
| 0.024 mM | 0.0027% | – | – | – | – | – | CCCCCCCCCCCCCCC(=O)NCC(CNC(=O)CCCCCC)(COC1OC(CO)C(OC2OC(CO)C(O)C(O)C2O)C(O)C1O)COC1OC(CO)C(OC2OC(CO)C(O)C(O)C2O)C(O)C1O (stereo not drawn) [MNG-18] |
| – | – | −4.7 | 58.8 (n = 3)* | −4.7 | 58.3 (n = 3) | −4.7 | CCCCCCCCCCOCCOC1OC(CO)C(OC2OC(CO)C(O)C(O)C2O)C(O)C1O (stereo not drawn) [MPA-11] |
| 0.39 mM | 0.043% | – | – | – | – | – | O=C(CCCC1CCCCC1)NCC(CNC(=O)CCCC1CCCCC1)(COC1OC(CO)C(OC2OC(CO)C(O)C(O)C2O)C(O)C1O)COC1OC(CO)C(OC2OC(CO)C(O)C(O)C2O)C(O)C1O (stereo not drawn) [MNG-9] |
| 0.84 mM | 0.1108% | – | – | – | – | – | O=C(CCc1cc(C(F)(F)F)cc(C(F)(F)F)c1)NCC(CNC(=O)CCc1cc(C(F)(F)F)cc(C(F)(F)F)c1)(COC1OC(CO)C(OC2OC(CO)C(O)C(O)C2O)C(O)C1O)COC1OC(CO)C(OC2OC(CO)C(O)C(O)C2O)C(O)C1O (stereo not drawn) [MNG-24] |
| 0.017 mM | 0.0018% | – | – | – | – | – | CCCCCCCCCOCC(COCCCCCCCCC)(COC1OC(CO)C(OC2OC(CO)C(O)C(O)C2O)C(O)C1O)COC1OC(CO)C(OC2OC(CO)C(O)C(O)C2O)C(O)C1O (stereo not drawn) [MNG-30] |
| 0.092 mM | 0.0095% | – | – | – | – | – | CCCCC(CCCC)OCC(COC(CCCC)CCCC)(COC1OC(CO)C(OC2OC(CO)C(O)C(O)C2O)C(O)C1O)COC1OC(CO)C(OC2OC(CO)C(O)C(O)C2O)C(O)C1O (stereo not drawn) [MNG-33] |
| – | – | −12.1 | 51.4 (n = 3)* | – | – | −12.1 | CCCCCCCCCCC(=O)NCCOC1OC(CO)C(OC2OC(CO)C(O)C(O)C2O)C(O)C1O (stereo not drawn) [MPA-6] |
| 0.1 mM | 0.0092% | – | – | – | – | – | CCCCCCCOCC(COCCCCCCC)(COC1OC(CO)C(O)C(O)C1O)COC1OC(CO)C(O)C(O)C1O (stereo not drawn) [GNG-7] |
| 0.043 mM | 0.0047% | – | – | – | – | – | CCCCCCCCCC(=O)NCC(CNC(=O)CCCCCCCCC)(COC1OC(CO)C(OC2OC(CO)C(O)C(O)C2O)C(O)C1O)COC1OC(CO)C(OC2OC(CO)C(O)C(O)C2O)C(O)C1O (stereo not drawn) [MNG-13] |
| 0.02 mM | 0.002% | – | – | – | – | – | CCCCCCCCCCCCC(=O)NCC(CNC(=O)CCCCCCCC)(COC1OC(CO)C(OC2OC(CO)C(O)C(O)C2O)C(O)C1O)COC1OC(CO)C(OC2OC(CO)C(O)C(O)C2O)C(O)C1O (stereo not drawn) [MNG-17] |
| 0.82 mM | 0.06% | – | – | – | – | – | OCC1OC(OCC(COC2OC(CO)C(O)C(O)C2O)(CSCCc2ccccc2)CSCCc2ccccc2)C(O)C(O)C1O (stereo not drawn) [GNG-11] |
| 0.023 mM | 0.0026% | – | – | – | – | – | CCCCCCCCCCCCCCCC(=O)NCC(CNC(=O)CCCCC)(COC1OC(CO)C(OC2OC(CO)C(O)C(O)C2O)C(O)C1O)COC1OC(CO)C(OC2OC(CO)C(O)C(O)C2O)C(O)C1O (stereo not drawn) [MNG-16] |
